Test results published in ChEMBL document CHEMBL5113380, “Functionalized quinoxalinones as privileged structures with broad-ranging pharmacological activities” (Eur J Med Chem, 2022).
≈ marks a conversion by molar mass, not a printed value.

Assays:
[1] = organism: Homo sapiens; assay: Inhibition of human TRK relative to control; set-up: concentration or dose not given beside the values; conditions: concentration not given here
[2] = biological target: Prostaglandin G/H synthase 1 (Homo sapiens, UniProt P23219)
Chain of Prostaglandin G/H synthase 1 (P23219 whole entry): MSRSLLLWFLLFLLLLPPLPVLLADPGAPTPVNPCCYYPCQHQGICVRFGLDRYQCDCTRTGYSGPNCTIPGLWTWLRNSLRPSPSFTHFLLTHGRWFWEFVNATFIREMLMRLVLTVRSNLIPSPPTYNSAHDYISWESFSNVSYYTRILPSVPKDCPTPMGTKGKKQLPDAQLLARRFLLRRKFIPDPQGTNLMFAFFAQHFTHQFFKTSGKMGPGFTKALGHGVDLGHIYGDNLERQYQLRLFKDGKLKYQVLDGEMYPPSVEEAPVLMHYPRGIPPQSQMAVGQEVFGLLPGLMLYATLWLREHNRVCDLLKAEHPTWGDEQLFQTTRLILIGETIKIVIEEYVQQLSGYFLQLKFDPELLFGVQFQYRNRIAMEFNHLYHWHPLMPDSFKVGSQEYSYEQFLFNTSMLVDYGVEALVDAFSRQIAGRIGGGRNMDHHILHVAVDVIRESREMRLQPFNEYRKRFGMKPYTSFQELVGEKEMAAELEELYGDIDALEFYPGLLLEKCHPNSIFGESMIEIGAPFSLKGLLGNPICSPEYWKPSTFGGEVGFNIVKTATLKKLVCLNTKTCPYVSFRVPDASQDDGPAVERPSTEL

[3] = biological target: Human immunodeficiency virus type 1 reverse transcriptase (Human immunodeficiency virus 1, UniProt Q72547); assay: Inhibition of HIV1 reverse transcriptase
[4] = biological target: Human immunodeficiency virus type 1 reverse transcriptase (Human immunodeficiency virus 1) (UniProt Q72547); assay: Inhibition of HIV1 reverse transcriptase at 10 uM relative to control
[5] = biological target: Human immunodeficiency virus type 1 reverse transcriptase (Human immunodeficiency virus 1) (UniProt Q72547); assay: Inhibition of HIV1 reverse transcriptase at 100 uM relative to control
[6] = Inhibition of palmitate-induced lipid accumulation in human HepG2 cells relative to control; assay type: functional
[7] = biological target: T1, Glutamate receptor ionotropic AMPA (Homo sapiens, UniProt P42261+P42262+P42263+P48058); assay: Binding affinity to AMPA receptor (unknown origin); assay type: protein-complex assay
[8] = biological target: Glutamate receptor ionotropic, kainate 1 (Homo sapiens, UniProt P39086); assay: Binding affinity to GluK1 receptor (unknown origin)
Chain of Glutamate receptor ionotropic, kainate 1 (P39086 whole entry): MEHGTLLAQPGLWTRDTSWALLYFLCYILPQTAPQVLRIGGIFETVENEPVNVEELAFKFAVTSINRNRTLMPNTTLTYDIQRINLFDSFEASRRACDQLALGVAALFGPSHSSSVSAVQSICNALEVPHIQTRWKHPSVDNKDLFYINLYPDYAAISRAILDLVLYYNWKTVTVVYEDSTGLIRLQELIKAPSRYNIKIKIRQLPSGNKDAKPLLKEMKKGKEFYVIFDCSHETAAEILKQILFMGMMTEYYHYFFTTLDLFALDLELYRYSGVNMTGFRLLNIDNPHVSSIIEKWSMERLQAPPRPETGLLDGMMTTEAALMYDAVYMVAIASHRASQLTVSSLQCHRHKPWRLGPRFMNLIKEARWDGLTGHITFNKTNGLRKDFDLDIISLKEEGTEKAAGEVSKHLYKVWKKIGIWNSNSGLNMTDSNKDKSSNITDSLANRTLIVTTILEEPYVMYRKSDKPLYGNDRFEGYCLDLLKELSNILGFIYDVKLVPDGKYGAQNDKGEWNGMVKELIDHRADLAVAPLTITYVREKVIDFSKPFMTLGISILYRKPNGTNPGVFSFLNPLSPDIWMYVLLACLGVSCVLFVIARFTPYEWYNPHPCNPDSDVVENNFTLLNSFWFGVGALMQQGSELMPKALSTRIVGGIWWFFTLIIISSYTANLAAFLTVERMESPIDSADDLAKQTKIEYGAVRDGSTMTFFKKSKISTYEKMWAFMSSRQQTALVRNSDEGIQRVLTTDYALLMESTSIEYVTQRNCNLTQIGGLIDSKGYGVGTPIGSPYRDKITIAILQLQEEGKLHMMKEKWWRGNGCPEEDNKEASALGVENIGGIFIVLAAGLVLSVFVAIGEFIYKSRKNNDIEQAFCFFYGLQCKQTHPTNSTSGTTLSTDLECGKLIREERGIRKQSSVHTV

[9] = biological target: Glutamate receptor ionotropic, kainate 2 (Homo sapiens, UniProt Q13002); assay: Binding affinity to GluK2 receptor (unknown origin)
Chain of Glutamate receptor ionotropic, kainate 2 (Q13002 whole entry): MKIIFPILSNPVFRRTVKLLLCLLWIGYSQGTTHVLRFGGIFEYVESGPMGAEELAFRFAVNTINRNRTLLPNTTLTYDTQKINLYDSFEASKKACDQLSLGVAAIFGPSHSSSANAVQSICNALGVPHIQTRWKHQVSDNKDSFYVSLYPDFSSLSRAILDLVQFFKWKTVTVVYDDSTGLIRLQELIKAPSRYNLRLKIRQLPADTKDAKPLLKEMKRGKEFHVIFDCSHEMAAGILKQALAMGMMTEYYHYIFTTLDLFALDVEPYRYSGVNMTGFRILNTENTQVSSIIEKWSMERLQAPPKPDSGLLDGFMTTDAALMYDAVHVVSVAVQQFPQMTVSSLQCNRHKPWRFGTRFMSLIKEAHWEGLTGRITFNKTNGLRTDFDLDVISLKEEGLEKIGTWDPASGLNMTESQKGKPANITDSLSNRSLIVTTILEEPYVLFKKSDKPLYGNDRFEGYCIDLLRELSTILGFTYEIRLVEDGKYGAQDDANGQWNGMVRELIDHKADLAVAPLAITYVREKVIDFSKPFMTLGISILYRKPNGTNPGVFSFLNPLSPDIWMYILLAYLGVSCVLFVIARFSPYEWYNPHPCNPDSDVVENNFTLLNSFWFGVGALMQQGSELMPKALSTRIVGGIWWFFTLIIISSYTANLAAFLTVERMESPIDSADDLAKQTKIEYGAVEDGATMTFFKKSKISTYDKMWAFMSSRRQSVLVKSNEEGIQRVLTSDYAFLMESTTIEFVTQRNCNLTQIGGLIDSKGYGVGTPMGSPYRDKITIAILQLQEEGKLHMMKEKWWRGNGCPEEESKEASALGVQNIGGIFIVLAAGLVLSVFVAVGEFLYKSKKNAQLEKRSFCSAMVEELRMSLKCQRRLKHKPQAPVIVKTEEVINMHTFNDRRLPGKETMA

[10] = Binding affinity to KA receptor (unknown origin); set-up: species or system Homo sapiens
[11] = biological target: Glutamate [NMDA] receptor; assay: Binding affinity to NMDA receptor (unknown origin); assay type: protein-complex assay, Homo sapiens
[12] = biological target: T1, Glutamate receptor ionotropic AMPA; assay: Displacement of [3H]AMPA from AMPA receptor (unknown origin); assay type: protein-complex assay
[13] = Displacement of [3H]glycine from AMPA receptor (unknown origin); assay type: protein-complex assay, Homo sapiens
[14] = biological target: T1, Glutamate receptor ionotropic AMPA; assay: Displacement of [3H]kainic acid from AMPA receptor (unknown origin); assay type: protein-complex assay
[15] = biological target: T2, Alpha amylase (Homo sapiens, UniProt P0DUB6); assay: Inhibition of alpha-amylase (unknown origin)
T2 sequence (P0DUB6 whole entry): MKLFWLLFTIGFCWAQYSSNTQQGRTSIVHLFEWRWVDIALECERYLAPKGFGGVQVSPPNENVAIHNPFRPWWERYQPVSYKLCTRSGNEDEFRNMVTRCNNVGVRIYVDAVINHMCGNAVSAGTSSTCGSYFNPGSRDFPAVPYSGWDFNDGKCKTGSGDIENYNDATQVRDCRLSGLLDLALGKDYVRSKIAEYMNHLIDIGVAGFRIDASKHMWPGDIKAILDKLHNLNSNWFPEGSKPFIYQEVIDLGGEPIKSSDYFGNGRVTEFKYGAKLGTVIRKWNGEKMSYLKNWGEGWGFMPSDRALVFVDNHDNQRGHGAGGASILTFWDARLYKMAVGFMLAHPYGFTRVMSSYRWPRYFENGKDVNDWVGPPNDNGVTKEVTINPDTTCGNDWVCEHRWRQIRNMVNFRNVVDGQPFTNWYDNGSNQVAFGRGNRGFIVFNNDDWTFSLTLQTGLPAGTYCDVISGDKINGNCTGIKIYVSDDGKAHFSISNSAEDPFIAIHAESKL

[16] = biological target: Glutamate receptor 2 (Homo sapiens, UniProt P42262); assay: Binding affinity to GluA2 receptor (unknown origin)
Chain of Glutamate receptor 2 (P42262 whole entry): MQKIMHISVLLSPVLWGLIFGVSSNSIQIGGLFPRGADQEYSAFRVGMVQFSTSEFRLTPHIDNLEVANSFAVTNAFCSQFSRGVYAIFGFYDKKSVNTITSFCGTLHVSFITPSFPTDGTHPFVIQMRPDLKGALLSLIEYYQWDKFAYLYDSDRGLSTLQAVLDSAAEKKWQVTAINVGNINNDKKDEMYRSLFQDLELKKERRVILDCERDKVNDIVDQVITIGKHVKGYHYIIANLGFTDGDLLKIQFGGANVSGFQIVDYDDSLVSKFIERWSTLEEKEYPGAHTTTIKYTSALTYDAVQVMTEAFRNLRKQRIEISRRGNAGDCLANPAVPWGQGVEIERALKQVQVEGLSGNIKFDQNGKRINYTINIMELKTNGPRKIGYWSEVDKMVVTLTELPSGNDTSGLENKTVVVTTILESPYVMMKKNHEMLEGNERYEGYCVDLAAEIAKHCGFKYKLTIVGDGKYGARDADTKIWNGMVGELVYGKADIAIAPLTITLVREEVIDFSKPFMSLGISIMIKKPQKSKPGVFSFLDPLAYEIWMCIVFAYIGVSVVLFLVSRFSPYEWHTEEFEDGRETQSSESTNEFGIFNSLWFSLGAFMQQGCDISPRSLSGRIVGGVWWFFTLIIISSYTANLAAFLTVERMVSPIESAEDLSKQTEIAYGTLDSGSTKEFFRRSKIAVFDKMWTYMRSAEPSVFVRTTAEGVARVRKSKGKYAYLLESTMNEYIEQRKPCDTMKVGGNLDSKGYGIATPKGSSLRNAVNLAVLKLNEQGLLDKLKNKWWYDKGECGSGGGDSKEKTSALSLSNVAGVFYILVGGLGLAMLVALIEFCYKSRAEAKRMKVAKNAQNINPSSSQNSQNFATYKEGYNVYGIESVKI

[17] = tested on: MCF7; assay: Antiproliferative activity against human MCF7 cells; assay type: functional, cell-based
[18] = tested on: HepG2; assay: Antiproliferative activity against human HepG2 cells; assay type: functional, cell-based
[19] = tested on: HeLa; assay: Antiproliferative activity against human HeLa cells; assay type: functional, cell-based
[20] = Antioxidant activity assessed as DPPH radical scavenging activity; assay type: functional; conditions: read-out: IC50
[21] = Inhibition of ALR2 (unknown origin); set-up: species or system Homo sapiens
[22] = Inhibition of ALR1 (unknown origin) relative to control; set-up: concentration or dose not given beside the values; conditions: Homo sapiens; concentration not given here
[23] = Antioxidant activity assessed as DPPH radical scavenging activity at 100 uM; assay type: functional
[24] = tested on: Pseudomonas aeruginosa; assay: Antibacterial activity against Pseudomonas aeruginosa; assay type: functional
[25] = tested on: Escherichia coli; assay: Antibacterial activity against Escherichia coli; assay type: functional
[26] = tested on: Staphylococcus aureus; assay: Antibacterial activity against Staphylococcus aureus; assay type: functional
[27] = tested on: Candida albicans; assay: Antifungal activity against Candida albicans; assay type: functional
[28] = tested on: Bacillus cereus; assay: Antibacterial activity against Bacillus cereus; assay type: functional
[29] = tested on: Aspergillus niger; assay: Antifungal activity against Aspergillus niger; assay type: functional
[30] = tested on: Trichophyton mentagrophytes; assay: Antimicrobial activity against Trichophyton mentagrophytes; assay type: functional
[31] = tested on: Klebsiella pneumoniae; assay: Antibacterial activity against Klebsiella pneumoniae; assay type: functional

Cc1nn(-c2ccccc2)c(N(C)C)c1/C=N/Nc1nc2ccccc2nc1O
inhibition [1]: 62%
IC50 [2]: > 50 µM

CC(C)COC(=O)N1c2ccccc2NC(=O)[C@H]1C
IC50 [3]: 64000 nM
inhibition [4]: 37%
inhibition [5]: 64%

Cc1cccc2c1NC(=O)CN2
inhibition (INH) [6]: 50%

O=C(O)c1ccccc1/C=C/c1ccc2[nH]c(=O)c(=O)[nH]c2c1
IC50 [7]: 0.48 µM
Ki [8]: 1.4 µM
Ki [9]: 2.5 µM
IC50 [10]: 24 µM
Ki [11]: > 100 µM

Cc1cccc2c1NC[C@H](C)N2
inhibition (INH) [6]: 30%

Nc1cc(Cl)cc2[nH]c(=O)c3nc(C(=O)O)nn3c12
Ki [12]: 3200 nM
Ki [13]: 160 nM
IC50 [14]: 34.1 µM

COc1cccc(/C=N/Nc2nc3ccccc3[nH]c2=O)c1
IC50 [15]: 492.68 µM

O=C(O)c1cc(-c2ccc3[nH]c(=O)c(=O)[nH]c3c2)ccc1Cl
IC50 [7]: 24 µM
Ki [16]: > 100 µM
Ki [8]: 1.2 µM
Ki [9]: 33 µM
IC50 [10]: 57 µM
Ki [11]: > 100 µM

Cc1cnc2ccccc2n1
inhibition (INH) [6]: 20%

CC(=O)N1CC(=O)Nc2ccccc21
inhibition [4]: 7%
inhibition [5]: 56%

O=C(O)c1ccc(-c2ccc3[nH]c(=O)c(=O)[nH]c3c2)cc1
IC50 [7]: > 100 µM
Ki [16]: > 100 µM
Ki [9]: 48 µM
IC50 [10]: > 100 µM
Ki [11]: > 100 µM

Cc1nn(-c2ccccc2)c(SCCCO)c1/C=N/Nc1nc2ccccc2[nH]c1=O
IC50 [17]: 11.3 µM
IC50 [18]: 23.4 µM
inhibition [1]: 78%

COc1ccc(/C(=C(\C#N)C(=O)NN)n2c(=O)c(O)nc3ccccc32)cc1
IC50 [17]: 2.61 µM
IC50 [19]: 8.92 µM

O=c1[nH]c2ccc(CCP(=O)(O)O)cc2[nH]c1=O
IC50 [7]: > 100 µM
Ki [8]: > 100 µM
Ki [9]: > 100 µM
IC50 [10]: > 100 µM
Ki [11]: 56 µM

Cc1nn(-c2ccccc2)c(N2CCNCC2)c1/C=N/Nc1nc2ccccc2nc1O
inhibition [1]: 20%
IC50 [2]: > 50 µM

CC(C)COC(=O)N1c2ccccc2NC(=O)[C@H]1CC(C)C
IC50 [3]: 67000 nM
inhibition [4]: 22%
inhibition [5]: 51%

CC(C)c1nc2ccc(N3C(=O)CSC3c3ccc([N+](=O)[O-])cc3)cc2[nH]c1=O (configuration not stated)
IC50 [20]: 162 µM
IC50 [15]: 356.32 µM

O=c1[nH]c2ccccc2nc1N/N=C/c1cccs1
IC50 [15]: 395.84 µM

O=C(O)CNS(=O)(=O)c1ccc2nc(O)c(O)nc2c1
IC50 [7]: > 100 µM
Ki [8]: > 100 µM
Ki [9]: > 100 µM
IC50 [10]: > 100 µM
Ki [11]: 53 µM

Cc1ccc2ncc(C)nc2c1
inhibition (INH) [6]: 20%

Cc1nn(-c2ccccc2)c(Cl)c1/C=N/Nc1nc2ccccc2[nH]c1=O
inhibition [1]: 34%
IC50 [2]: > 50 µM

Cc1nn(-c2ccccc2)c(N2CCN(S(=O)(=O)c3ccccc3)CC2)c1/C=N/Nc1nc2ccccc2nc1O
inhibition [1]: 12%

COC(=O)c1sccc1S(=O)(=O)N1c2cc(Cl)ccc2NC(=O)C1C (configuration not stated)
IC50 [3]: 200 nM

CC(C)COC(=O)N1CC(=O)Nc2ccccc21
inhibition [4]: 20%
inhibition [5]: 46%

CC(=O)N1CCN(c2c(/C=N/Nc3nc4ccccc4nc3O)c(C)nn2-c2ccccc2)CC1
inhibition [1]: 80%
IC50 [2]: > 50 µM

Cc1cccc2c1NCCN2
inhibition (INH) [6]: 30%

O=C(O)Cc1cccc(-c2ccc3[nH]c(=O)c(=O)[nH]c3c2)c1
IC50 [7]: > 100 µM
Ki [8]: > 100 µM
Ki [9]: > 100 µM
IC50 [10]: > 100 µM
Ki [11]: 41 µM

COC(=O)c1sc(I)cc1S(=O)(=O)N1c2cc(Cl)ccc2NC(=O)C1C (configuration not stated)
IC50 [3]: 75 nM

Cc1ccc(C(=O)O)cc1-c1ccc2[nH]c(=O)c(=O)[nH]c2c1
IC50 [7]: 30 µM
Ki [16]: > 100 µM
Ki [8]: 1.3 µM
Ki [9]: > 100 µM
IC50 [10]: > 100 µM
Ki [11]: > 100 µM

Cc1ccc2c(c1)N[C@@H](C)C(=O)N2
inhibition (INH) [6]: 50%

N[C@@H](Cc1ccc2[nH]c(=O)c(=O)[nH]c2c1)C(=O)O
IC50 [12]: 203 µM
IC50 [14]: > 300 µM
Ki [16]: > 100 µM
Ki [8]: > 100 µM
Ki [9]: 136 µM

Cc1nn(-c2ccccc2)c(N2CCOCC2)c1/C=N/Nc1nc2ccccc2nc1O
inhibition [1]: 84%
IC50 [2]: > 50 µM

O=c1[nH]c2ccc(-c3cccc(P(=O)(O)O)c3)cc2[nH]c1=O
IC50 [7]: > 100 µM
Ki [16]: > 100 µM
Ki [8]: 12 µM
Ki [9]: > 100 µM
IC50 [10]: > 100 µM
Ki [11]: > 100 µM

O=C(O)Cn1c(=O)c(-c2ccc(O)cc2O)nc2ccc(F)cc21
IC50 [21]: 32 nM
inhibition [22]: 46.2%
Activity [23]: 9.1%

Cc1nn(-c2ccccc2)c(N2CCN(C)CC2)c1/C=N/Nc1nc2ccccc2nc1O
inhibition [1]: 83%
IC50 [2]: > 50 µM

O=c1[nH]c2ccc(CCCP(=O)(O)O)cc2[nH]c1=O
IC50 [7]: > 100 µM
Ki [8]: > 100 µM
Ki [9]: > 100 µM
IC50 [10]: > 100 µM
Ki [11]: 55 µM

Cc1nn(-c2ccccc2)c(N2CCCCC2)c1/C=N/Nc1nc2ccccc2nc1O
inhibition [1]: 74%
IC50 [2]: > 50 µM

O=c1[nH]c2ccc(/C=C/CP(=O)(O)O)cc2[nH]c1=O
IC50 [7]: > 100 µM
Ki [8]: > 100 µM
Ki [9]: > 100 µM
IC50 [10]: > 100 µM
Ki [11]: 69 µM

COC(=O)c1sccc1S(=O)(=O)N1c2cc(F)ccc2NC(=O)C1C (configuration not stated)
IC50 [3]: 200 nM

CCCCCCCCCn1c(=O)c2c(-c3ccccc3)nc(-c3ccc[n+](CCCCCCCCC)c3)n2c2ccccc21.[I-]
MBC [24]: > 500 µg/mL
MIC [24]: > 500 µg/mL
MBC [25]: > 500 µg/mL
MIC [25]: > 500 µg/mL
MBC [26]: 500 µg/mL
MIC [26]: 7.8 µg/mL
MBC [27]: > 500 µg/mL
MIC [27]: > 500 µg/mL
MBC [28]: > 500 µg/mL
MIC [28]: 7.8 µg/mL
MBC [29]: > 500 µg/mL
MIC [29]: > 500 µg/mL
MBC [30]: > 500 µg/mL
MIC [30]: > 500 µg/mL

O=C(O)c1nc2c(=O)[nH]c3cc(Cl)cc(-n4cnnc4)c3n2n1
Ki [12]: 400 nM
Ki [13]: 2300 nM
IC50 [14]: 37 µM

O=C(Nn1c(=O)c(=O)[nH]c2cc(C#CCCO)ccc21)c1ccccc1
Ki [16]: > 100 µM
Ki [8]: 12.7 µM

CN1CCNc2ccccc21
inhibition (INH) [6]: 30%

CSCCc1nc2ccc(N3C(=O)CSC3c3ccc([N+](=O)[O-])cc3)cc2[nH]c1=O (configuration not stated)
MBC [27]: 353 µM
MBC [31]: 706 µM (≈ 313 µg/mL)
IC50 [20]: 28.9 µM

COC(=O)c1sc(Cl)cc1S(=O)(=O)N1c2cc(Cl)ccc2NC(=O)C1C (configuration not stated)
IC50 [3]: 70 nM

Cc1ccc2c(c1)N[C@H](C)C(=O)N2
inhibition (INH) [6]: 50%
